Test system: Avena fatua (AVEFA)
Test: Example B post-emergence herbicidal activity, glasshouse pot test
Type: in vivo
Details: 312 h, rate 250 g/ha, evaluated after 13 days, read-out: Post-emergence activity AVEFA (100=total damage to plant; 0=no damage to plant)
How it was run: (§1)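 Herbicidal effect was judged 13 days after treatment as percent-style damage (100 = total kill). Seeds in standard soil had grown 1 day (pre) or 8 days (post) in a 24/16 °C, 14 h light, 65% humidity glasshouse before spraying with compound in acetone/water (50:50) containing 0.5% Tween 20.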

| Compound | pest or weed control at 250 g/ha [%] |
| --- | --- |
| CCc1ccc(-c2ccc(I)cc2)cc1C1=C(O)C(C)(C)OC(C)(C)C1=O [Compound A-101] | 100 |
| Cc1cc(C)c(-c2ccc(Cl)cc2F)c(C)c1C1=C(O)C(C)(C)OC(C)(C)C1=O [Compound A-102] | 0 |
| COc1ccc(-c2ccc(Cl)cc2F)cc1C1=C(O)C(C)(C)OC(C)(C)C1=O [Compound A-103] | 0 |
| CCc1ccc(-c2ccc(Cl)cc2)cc1C1=C(O)[C@]2(C)O[C@@H](CC2COC)C1=O (some centres unmarked) [Compound A-122] | 50 |
| CCc1ccc(-c2ccc(Cl)c(F)c2)cc1C1=C(O)[C@]2(C)O[C@@H](CC2COC)C1=O (some centres unmarked) [Compound A-127] | 40 |

Test system: Echinochloa crus-galli (ECHCG)
Test: as above
Type: in vivo
Details: 312 h, rate 250 g/ha, evaluated after 13 days, read-out: Post-emergence activity ECHCG (100=total damage to plant; 0=no damage to plant)
How it was run: as §1

| Compound | pest or weed control at 250 g/ha [%] |
| --- | --- |
| CCc1ccc(-c2ccc(I)cc2)cc1C1=C(O)C(C)(C)OC(C)(C)C1=O [Compound A-101] | 100 |
| Cc1cc(C)c(-c2ccc(Cl)cc2F)c(C)c1C1=C(O)C(C)(C)OC(C)(C)C1=O [Compound A-102] | 70 |
| COc1ccc(-c2ccc(Cl)cc2F)cc1C1=C(O)C(C)(C)OC(C)(C)C1=O [Compound A-103] | 100 |
| CCc1ccc(-c2ccc(Cl)cc2)cc1C1=C(O)[C@]2(C)O[C@@H](CC2COC)C1=O (some centres unmarked) [Compound A-122] | 100 |
| CCc1ccc(-c2ccc(Cl)c(F)c2)cc1C1=C(O)[C@]2(C)O[C@@H](CC2COC)C1=O (some centres unmarked) [Compound A-127] | 100 |

Test system: Alopecurus myosuroides (ALOMY)
Test: as above
Type: in vivo
Details: 312 h, rate 250 g/ha, evaluated after 13 days, read-out: Post-emergence activity ALOMY (100=total damage to plant; 0=no damage to plant)
How it was run: as §1

| Compound | pest or weed control at 250 g/ha [%] |
| --- | --- |
| CCc1ccc(-c2ccc(I)cc2)cc1C1=C(O)C(C)(C)OC(C)(C)C1=O [Compound A-101] | 100 |
| Cc1cc(C)c(-c2ccc(Cl)cc2F)c(C)c1C1=C(O)C(C)(C)OC(C)(C)C1=O [Compound A-102] | 20 |
| COc1ccc(-c2ccc(Cl)cc2F)cc1C1=C(O)C(C)(C)OC(C)(C)C1=O [Compound A-103] | 10 |
| CCc1ccc(-c2ccc(Cl)cc2)cc1C1=C(O)[C@]2(C)O[C@@H](CC2COC)C1=O (some centres unmarked) [Compound A-122] | 80 |
| CCc1ccc(-c2ccc(Cl)c(F)c2)cc1C1=C(O)[C@]2(C)O[C@@H](CC2COC)C1=O (some centres unmarked) [Compound A-127] | 80 |

Test system: Amaranthus retroflexus (AMARE)
Test: as above
Type: in vivo
Details: 312 h, rate 250 g/ha, evaluated after 13 days, read-out: Post-emergence activity AMARE (100=total damage to plant; 0=no damage to plant)
How it was run: as §1

| Compound | pest or weed control at 250 g/ha [%] |
| --- | --- |
| CCc1ccc(-c2ccc(I)cc2)cc1C1=C(O)C(C)(C)OC(C)(C)C1=O [Compound A-101] | 0 |
| Cc1cc(C)c(-c2ccc(Cl)cc2F)c(C)c1C1=C(O)C(C)(C)OC(C)(C)C1=O [Compound A-102] | 0 |
| COc1ccc(-c2ccc(Cl)cc2F)cc1C1=C(O)C(C)(C)OC(C)(C)C1=O [Compound A-103] | 0 |
| CCc1ccc(-c2ccc(Cl)cc2)cc1C1=C(O)[C@]2(C)O[C@@H](CC2COC)C1=O (some centres unmarked) [Compound A-122] | 40 |
| CCc1ccc(-c2ccc(Cl)c(F)c2)cc1C1=C(O)[C@]2(C)O[C@@H](CC2COC)C1=O (some centres unmarked) [Compound A-127] | 0 |

Test system: Setaria faberi (SETFA)
Test: as above
Type: in vivo
Details: 312 h, rate 250 g/ha, evaluated after 13 days, read-out: Post-emergence activity SETFA (100=total damage to plant; 0=no damage to plant)
How it was run: as §1

| Compound | pest or weed control at 250 g/ha [%] |
| --- | --- |
| CCc1ccc(-c2ccc(I)cc2)cc1C1=C(O)C(C)(C)OC(C)(C)C1=O [Compound A-101] | 100 |
| Cc1cc(C)c(-c2ccc(Cl)cc2F)c(C)c1C1=C(O)C(C)(C)OC(C)(C)C1=O [Compound A-102] | 30 |
| COc1ccc(-c2ccc(Cl)cc2F)cc1C1=C(O)C(C)(C)OC(C)(C)C1=O [Compound A-103] | 100 |
| CCc1ccc(-c2ccc(Cl)cc2)cc1C1=C(O)[C@]2(C)O[C@@H](CC2COC)C1=O (some centres unmarked) [Compound A-122] | 100 |
| CCc1ccc(-c2ccc(Cl)c(F)c2)cc1C1=C(O)[C@]2(C)O[C@@H](CC2COC)C1=O (some centres unmarked) [Compound A-127] | 100 |

Test system: Avena fatua (AVEFA)
Test: Example B pre-emergence herbicidal activity, glasshouse pot test
Type: in vivo
Details: 312 h, rate 250 g/ha, evaluated after 13 days, read-out: Pre-emergence activity AVEFA (100=total damage to plant; 0=no damage to plant)
How it was run: as §1

| Compound | pest or weed control at 250 g/ha [%] |
| --- | --- |
| CCc1ccc(-c2ccc(I)cc2)cc1C1=C(O)C(C)(C)OC(C)(C)C1=O [Compound A-101] | 100 |
| Cc1cc(C)c(-c2ccc(Cl)cc2F)c(C)c1C1=C(O)C(C)(C)OC(C)(C)C1=O [Compound A-102] | 0 |
| COc1ccc(-c2ccc(Cl)cc2F)cc1C1=C(O)C(C)(C)OC(C)(C)C1=O [Compound A-103] | 0 |
| CCc1ccc(-c2ccc(Cl)cc2)cc1C1=C(O)[C@]2(C)O[C@@H](CC2COC)C1=O (some centres unmarked) [Compound A-122] | 100 |
| CCc1ccc(-c2ccc(Cl)c(F)c2)cc1C1=C(O)[C@]2(C)O[C@@H](CC2COC)C1=O (some centres unmarked) [Compound A-127] | 70 |

Test system: Echinochloa crus-galli (ECHCG)
Test: as above
Type: in vivo
Details: 312 h, rate 250 g/ha, evaluated after 13 days, read-out: Pre-emergence activity ECHCG (100=total damage to plant; 0=no damage to plant)
How it was run: as §1

| Compound | pest or weed control at 250 g/ha [%] |
| --- | --- |
| CCc1ccc(-c2ccc(I)cc2)cc1C1=C(O)C(C)(C)OC(C)(C)C1=O [Compound A-101] | 100 |
| Cc1cc(C)c(-c2ccc(Cl)cc2F)c(C)c1C1=C(O)C(C)(C)OC(C)(C)C1=O [Compound A-102] | 90 |
| COc1ccc(-c2ccc(Cl)cc2F)cc1C1=C(O)C(C)(C)OC(C)(C)C1=O [Compound A-103] | 0 |
| CCc1ccc(-c2ccc(Cl)cc2)cc1C1=C(O)[C@]2(C)O[C@@H](CC2COC)C1=O (some centres unmarked) [Compound A-122] | 90 |
| CCc1ccc(-c2ccc(Cl)c(F)c2)cc1C1=C(O)[C@]2(C)O[C@@H](CC2COC)C1=O (some centres unmarked) [Compound A-127] | 50 |

Test system: Alopecurus myosuroides (ALOMY)
Test: as above
Type: in vivo
Details: 312 h, rate 250 g/ha, evaluated after 13 days, read-out: Pre-emergence activity ALOMY (100=total damage to plant; 0=no damage to plant)
How it was run: as §1

| Compound | pest or weed control at 250 g/ha [%] |
| --- | --- |
| CCc1ccc(-c2ccc(I)cc2)cc1C1=C(O)C(C)(C)OC(C)(C)C1=O [Compound A-101] | 70 |
| Cc1cc(C)c(-c2ccc(Cl)cc2F)c(C)c1C1=C(O)C(C)(C)OC(C)(C)C1=O [Compound A-102] | 30 |
| COc1ccc(-c2ccc(Cl)cc2F)cc1C1=C(O)C(C)(C)OC(C)(C)C1=O [Compound A-103] | 0 |
| CCc1ccc(-c2ccc(Cl)cc2)cc1C1=C(O)[C@]2(C)O[C@@H](CC2COC)C1=O (some centres unmarked) [Compound A-122] | 40 |
| CCc1ccc(-c2ccc(Cl)c(F)c2)cc1C1=C(O)[C@]2(C)O[C@@H](CC2COC)C1=O (some centres unmarked) [Compound A-127] | 30 |

Test system: Amaranthus retroflexus (AMARE)
Test: as above
Type: in vivo
Details: 312 h, rate 250 g/ha, evaluated after 13 days, read-out: Pre-emergence activity AMARE (100=total damage to plant; 0=no damage to plant)
How it was run: as §1

| Compound | pest or weed control at 250 g/ha [%] |
| --- | --- |
| CCc1ccc(-c2ccc(I)cc2)cc1C1=C(O)C(C)(C)OC(C)(C)C1=O [Compound A-101] | 0 |
| Cc1cc(C)c(-c2ccc(Cl)cc2F)c(C)c1C1=C(O)C(C)(C)OC(C)(C)C1=O [Compound A-102] | 0 |
| COc1ccc(-c2ccc(Cl)cc2F)cc1C1=C(O)C(C)(C)OC(C)(C)C1=O [Compound A-103] | 0 |
| CCc1ccc(-c2ccc(Cl)cc2)cc1C1=C(O)[C@]2(C)O[C@@H](CC2COC)C1=O (some centres unmarked) [Compound A-122] | 0 |
| CCc1ccc(-c2ccc(Cl)c(F)c2)cc1C1=C(O)[C@]2(C)O[C@@H](CC2COC)C1=O (some centres unmarked) [Compound A-127] | 0 |

Test system: Setaria faberi (SETFA)
Test: as above
Type: in vivo
Details: 312 h, rate 250 g/ha, evaluated after 13 days, read-out: Pre-emergence activity SETFA (100=total damage to plant; 0=no damage to plant)
How it was run: as §1

| Compound | pest or weed control at 250 g/ha [%] |
| --- | --- |
| CCc1ccc(-c2ccc(I)cc2)cc1C1=C(O)C(C)(C)OC(C)(C)C1=O [Compound A-101] | 100 |
| Cc1cc(C)c(-c2ccc(Cl)cc2F)c(C)c1C1=C(O)C(C)(C)OC(C)(C)C1=O [Compound A-102] | 90 |
| COc1ccc(-c2ccc(Cl)cc2F)cc1C1=C(O)C(C)(C)OC(C)(C)C1=O [Compound A-103] | 0 |
| CCc1ccc(-c2ccc(Cl)cc2)cc1C1=C(O)[C@]2(C)O[C@@H](CC2COC)C1=O (some centres unmarked) [Compound A-122] | 100 |
| CCc1ccc(-c2ccc(Cl)c(F)c2)cc1C1=C(O)[C@]2(C)O[C@@H](CC2COC)C1=O (some centres unmarked) [Compound A-127] | 90 |

Reference: patent publication US8680012B2, “4-phenyl-pyrane-3,5-diones,4-phenyl-thiopyrane-3,6-diones and cyclohexanetriones as novel herbicides” (Syngenta Crop Protection LLC, priority 2006, dated 2014)
